According to patent US4430331A, “Antiarrhytmic benzylimidazole” (Shionogi & Co., Ltd., priority 1981, dated 1984):

Tests used:
[1] = tested on: atrium dextrum specimens; experiment: Antiarrhythmic activity (cardiomuscular action to the maximal stimulus frequency); parameters: species or system guinea-pigs; settings: isolated guinea-pig atrium dextrum, Krebs-Ringer-sodium carbonate solution, 30° C., after 10 minutes treatment with test compound
Procedure: (a) Antiarrhythmic activity (cardiomuscular action to the maximal stimulus frequency) A certain number of atrium dextrum specimens were made by extracting the heart from male and female guinea-pigs weighing on average 350 to 600 g, and then suspended and fixed in a glass vessel filled with Krebs-Ringer-sodium carbonate solution (30° C.) in which a mixture of 95% oxygen and 5% carbon dioxide was continuously introduced. The automatism of the specimens was recorded on the oscillograph. Maximal stimulus frequency was confirmed by affording a stimulus of the atrium dextrum from the exciting electrode equipped to a retainer. After previously treating with a test compound for 10 minutes, the reducing percent (%) of the maximal stimulus frequency was calculated by observing the reduction of the maximal frequency [[…].: Brit. […]., 1, 90 (1946)].

[2] = tested on: SLC-DDY male mice; experiment: in vivo; type: in vivo; settings: LD50, up and down method, into tail venae (intravenous), SLC-DDY male mice 25 to 35 g
Excerpt: (§1) Lethal dose was obtained by administering a test compound in the form of a physiological brine solution into the tail venae of SLC-DDY male mice weighing from 25 to 35 g and calculating the value of LD50 by the up and down method [Brownlee, K. A. et al.: J. Am. Stat. As., 48, 262 (1953)].

[3] = in vivo; type: in vivo; settings: mouse, in vivo; LD50, up and down method, into tail venae (intravenous), SLC-DDY male mice 25 to 35 g; read-out: Acute toxicity (LD50)
Excerpt: as §1

For `C=C(c1c(Cl)ccc(Cl)c1OCC(O)CNC(C)C)n1ccnc1` (stereo not shown) [Example 7], the “Reducing percent (%) of Maximal stimulus frequency” value (“Reducing percent (%)” below) [1] was 38.1% and the “Acute toxicity (LD50)” value [2] was 19.8 mg/kg.
With `C=C(c1c(Cl)ccc(Cl)c1OCC(O)CNCC(C)C)n1ccnc1` (stereo not shown) [Example 13] the “Reducing percent (%)” value [1] was 34.5% and the “Acute toxicity (LD50)” value [2] was 15.5 mg/kg.
With `C=C(c1ccccc1OCC(O)CNC(C)C)n1cnc(C(=O)OCC)c1C` (stereo not shown) [Example 17] the “Reducing percent (%)” value [1] was 31.7% and the LD50 [3] was 36.4 mg/kg.
With `C=C(c1ccccc1OCC(O)CNC(C)(C)C)n1cnc2ccccc21` (stereo not shown) [Example 22] the “Reducing percent (%)” value [1] was 35.8% and the “Acute toxicity (LD50)” value [2] was 26.5 mg/kg.
In the case of `C=C(c1ccccc1OCC(O)CNC(C)C)n1cnc(C)c1` (stereo not shown) [Example 24], the “Reducing percent (%)” value [1] is reported as 36.1% and the “Acute toxicity (LD50)” value [2] is reported as 36.4 mg/kg.
With `C=C(c1ccccc1OCC(O)CNC(C)(C)C)n1cccn1` (stereo not shown) [Example 25] the “Reducing percent (%)” value [1] was 39.2% and the “Acute toxicity (LD50)” value [2] was 22.3 mg/kg.
For `C=C(c1ccc(Cl)c(Cl)c1OCC(O)CNC(C)C)n1ccnc1` (stereo not shown) [Example 26], the “Reducing percent (%)” value [1] was 35.8% and the “Acute toxicity (LD50)” value [2] was 33.9 mg/kg.
For `C=C(c1c(C)ccc(Cl)c1OCC(O)CNC(C)C)n1ccnc1` (stereo not shown) [Example 30], the “Reducing percent (%)” value [1] was 50.6% and the “Acute toxicity (LD50)” value [2] was 28.5 mg/kg.
For `C=C(c1ccccc1OCC(O)CNC(C)C)n1cncn1` (stereo not shown) [Example 31], the “Reducing percent (%)” value [1] was 42.8% and the “Acute toxicity (LD50)” value [2] was 36.4 mg/kg.
With `C=C[C@H]1C[N@@]2CC[C@H]1C[C@@H]2[C@@H](O)c1ccnc2ccc(OC)cc12` [Quinidine, reference compound] the “Reducing percent (%)” value [1] was 22.8%.
